Assay results published in US10220029B2, “Pharmaceutical composition comprising glutarimide derivatives and use thereof in the treatment of eosinophilic diseases” (OBSCHESTVO S ORGANICHENNOI OTVETSTVENNOSTIYU …, priority 2013, dated 2019).

Columns and labels:
[1] = test system: model of bronchial asthma in guinea pigs; test: Severity of bronchospasm in the model of bronchial asthma in guinea pigs; assay type: in vivo, guinea pig; settings: Experiment No. 1, 10 times, n = 8
Protocol: Bronchial asthma in guinea pigs was induced by a standard method [Ricciardolo F L, Nijkamp F, De Rose V, Folkerts G. The guinea pig as an animal model for asthma// Current Drug Targets. 2008 June; 9(6):452-65]. The animals were immunized by one parenteral administration of 0.5 mL of a solution comprising 100 μg/mL ovalbumin (Sigma) and 100 mg/mL aluminium hydroxide. Intact animals received a physiological saline solution in an amount of 0.5 mL.
On days 29, 30 and 31, hyperactivity of the respiratory airways was provoked by inhalation administration of ovalbumin in ascending concentrations of 0.1, 0.3, and 0.5 mg/mL on days 1, 2, and 3 of the provocation, respectively. The inhalation lasted 5 minutes or until asphyxia symptoms became apparent (fall to one side). On day 32, the animals received a challenging dose of ovalbumin (1 mg/mL) for 5 minutes, while assessing a bronchospastic reaction.
The studied compounds were administered to the animals once daily every day for 6 or 10 days; the administration was terminated two days before the administration of the challenging dose of antigen.
The bronchospastic reaction was assessed by a change in the rate and depth of the respiratory movements and by the asphyxia symptom such as fall to one side. Spirogram was registered by laboratory experimental equipment (ADInstruments, Australia), using a base recording station (PowerLab 8sp.) and software LabCart. The registration was made using airflow sensors for laboratory animals and a spirograph with an integrated amplifier (ADInstruments).
The study comprised 3 experiments, wherein the first one was directed to the evaluation of the effect of claimed compounds 1-6 on the cell composition of the BAL, the second and the third experiments were aimed at evaluating the effect of compounds 1 and 2 on the cell composition of the BAL, the cell composition of the blood, and on the bronchospasm severity.

[2] = test system: model of sephadex-induced eosinophilic lung inflammation in rats; test: Content of cell elements in BAL in the model of sephadex-induced eosinophilic lung inflammation in rats; assay type: in vivo, male Wistar rats; settings: Table 8, four times, BAL 48 hours after sephadex, n = 10
Protocol: The model of sephadex-induced eosinophilic lung inflammation in rats was realized by a standard method [Evaldsson C, Rydén I, Uppugunduri S. Isomaltitol exacerbates neutrophilia but reduces eosinophilia: new insights into the sephadex model of lung inflammation//Int Arch Allergy Immunol. 2011; 154(4):286-94]. Sephadex G-200 (Pharmacia, Sweden) was administered one time by inhalation to male Wistar rats at a dose of 5 mg/kg. The studied compounds were administered to the animals by the intragastric route four times: 24 hours and 1 hour before and 24 hours and 45 hours after administration of sephadex. The reference preparation, budesonide, was administered according to the same scheme, by inhalation at a dose of 0.5 mg/kg. Bronchoalveolar lavage was taken 48 hours after the inhalation of sephadex, and the total lymphocyte count and leukocyte formula in the lavage were determined. The number of rats in a group was 7 to 10.

[3] = test system: model of allergic rhinitis in guinea pigs; test: Content of cell elements in the nasal lavage in the model of allergic rhinitis in guinea pigs; assay type: in vivo, guinea pig; settings: 14 mg/kg intragastric, 3 times; nasal lavage 24 hours after last ovalbumin; n = 8
Protocol: (§1) The model of allergic rhinitis in guinea pigs was realized by a standard method [Vishnu N. Thakare, M. M. Osama, Suresh R. Naik. […] 2013 September; 17(1):18-25].
(§2) Guinea pigs (250-300 g) were immunized with 4-time (on days 0, 7, 14, and 21) intragastric administration of ovalbumin (100 μg/pig) and aluminium hydroxide (5 mg/pig), both of which were diluted and suspended in a physiological saline solution. […], a solution of ovalbumin (60 mg/mL) was administered intranasally to each nostril of the animals at a dose 20 μL. On day 35, the animals received subcutaneously an ovalbumin solution (200 μg/mL, 25 μL); the animal back was previously shaved in the site of administration. Swelling and redness at the injection site served as a support of sensibilisation. On day 42 of the study, an ovalbumin solution (60 mg/mL, 20 μL/nostril) was administered intranasally. A group of pseudoimmunized animals was formed to control the formation of exactly allergic inflammation: on days 0, 7, 14, and 21, the pigs received a solution of aluminium hydroxide (5 mg/pig), and on days 28 and 35, they received a physiological saline solution, and on day 42, a solution of ovalbumin (60 mg/mL, 20 μL/nostril).
(§3) The studied compounds (14 mg/kg) were administered 3 times by the intragastric route: 48, 24, and 1 hour before the last administration of ovalbumin. The reference preparation, dexamethasone, was administered one time by the intragastric route, 3 hours before the last intranasal administration of ovalbumin.
(§4) Clinical manifestations, such as the number of sneezes and nose scratchings, were registered for 2 hours after the last administration of ovalbumin. Nasal lavage was taken 24 hours after the last administration of ovalbumin, and in this lavage, the total lymphocyte count and leukocyte formula were determined. The number of guinea pigs in a group was 8.

[4] = test system: model of allergic rhinitis in guinea pigs; test: Clinical manifestations of allergic rhinitis in guinea pigs (sneezes, nose scratchings); assay type: in vivo, guinea pig; settings: 14 mg/kg intragastric, 3 times; 2 hours after last ovalbumin; n = 8
Protocol: as §1, §2, §3, §4

## O=C1CCCC(=O)N1CCc1cnc[nH]1 [Compound 1, 1-(2-(1H-imidazol-4-yl)ethyl)piperidine-2,6-dione]
[1]; 0.045 mg/kg
  The number of animals with moderate bronchospasm (without acute phase, with subacute phase, with breath management): 1
  The number of animals with moderate bronchospasm (without acute phase, with subacute phase, without breath management): 2
  The number of animals with severe bronchospasm (in acute and subacute phase): 0
  The number of animals without bronchospasm: 5
[1]; 0.14 mg/kg
  The number of animals with moderate bronchospasm (without acute phase, with subacute phase, with breath management): 1
  The number of animals with moderate bronchospasm (without acute phase, with subacute phase, without breath management): 0
  The number of animals with severe bronchospasm (in acute and subacute phase): 0
  The number of animals without bronchospasm: 7
[1]; 14 mg/kg
  The number of animals with moderate bronchospasm (without acute phase, with subacute phase, with breath management): 0
  The number of animals with moderate bronchospasm (without acute phase, with subacute phase, without breath management): 2
  The number of animals with severe bronchospasm (in acute and subacute phase): 1
  The number of animals without bronchospasm: 5
[2]; 0.06 mg/kg intragastric
  Eosinophils, content of cell elements in 1 μL of BAL: 118 ± 27*& in 1 μL of BAL
  Leukocytes, content of cell elements in 1 μL of BAL: 2500 ± 307 in 1 μL of BAL
  Lymphocytes, content of cell elements in 1 μL of BAL: 128 ± 48 in 1 μL of BAL
  Macrophages, content of cell elements in 1 μL of BAL: 1417 ± 131 in 1 μL of BAL
  Neutrophils, content of cell elements in 1 μL of BAL: 837 ± 231 in 1 μL of BAL
[2]; 0.18 mg/kg intragastric
  Eosinophils, content of cell elements in 1 μL of BAL: 174 ± 64*& in 1 μL of BAL
  Leukocytes, content of cell elements in 1 μL of BAL: 2665 ± 455 in 1 μL of BAL
  Lymphocytes, content of cell elements in 1 μL of BAL: 143 ± 54 in 1 μL of BAL
  Macrophages, content of cell elements in 1 μL of BAL: 1661 ± 260 in 1 μL of BAL
  Neutrophils, content of cell elements in 1 μL of BAL: 597 ± 168 in 1 μL of BAL
[2]; 0.54 mg/kg intragastric
  Eosinophils, content of cell elements in 1 μL of BAL: 126 ± 43*& in 1 μL of BAL
  Leukocytes, content of cell elements in 1 μL of BAL: 2120 ± 218*& in 1 μL of BAL
  Lymphocytes, content of cell elements in 1 μL of BAL: 196 ± 63 in 1 μL of BAL
  Macrophages, content of cell elements in 1 μL of BAL: 1446 ± 113 in 1 μL of BAL
  Neutrophils, content of cell elements in 1 μL of BAL: 352 ± 135 in 1 μL of BAL
[2]; 1.8 mg/kg intragastric
  Eosinophils, content of cell elements in 1 μL of BAL: 129 ± 44*& in 1 μL of BAL
  Leukocytes, content of cell elements in 1 μL of BAL: 1915 ± 250*& in 1 μL of BAL
  Lymphocytes, content of cell elements in 1 μL of BAL: 122 ± 49 in 1 μL of BAL
  Macrophages, content of cell elements in 1 μL of BAL: 1214 ± 130 in 1 μL of BAL
  Neutrophils, content of cell elements in 1 μL of BAL: 451 ± 149 in 1 μL of BAL
[2]; 5.4 mg/kg intragastric
  Eosinophils, content of cell elements in 1 μL of BAL: 152 ± 56*& in 1 μL of BAL
  Leukocytes, content of cell elements in 1 μL of BAL: 2340 ± 322 in 1 μL of BAL
  Lymphocytes, content of cell elements in 1 μL of BAL: 170 ± 45 in 1 μL of BAL
  Macrophages, content of cell elements in 1 μL of BAL: 1525 ± 199 in 1 μL of BAL
  Neutrophils, content of cell elements in 1 μL of BAL: 492 ± 129 in 1 μL of BAL
[2]; 18 mg/kg intragastric
  Eosinophils, content of cell elements in 1 μL of BAL: 69 ± 22*& in 1 μL of BAL
  Leukocytes, content of cell elements in 1 μL of BAL: 2135 ± 205*& in 1 μL of BAL
  Lymphocytes, content of cell elements in 1 μL of BAL: 168 ± 44 in 1 μL of BAL
  Macrophages, content of cell elements in 1 μL of BAL: 1601 ± 134 in 1 μL of BAL
  Neutrophils, content of cell elements in 1 μL of BAL: 297 ± 89*& in 1 μL of BAL
[3]
  Eosinophils, content of cell elements in 1 μL of nasal lavage: 521 ± 129& in 1 μL of nasal lavage
  Leukocytes, content of cell elements in 1 μL of nasal lavage: 1300 ± 254& in 1 μL of nasal lavage
  Lymphocytes, content of cell elements in 1 μL of nasal lavage: 6 ± 6 in 1 μL of nasal lavage
  Macrophages, content of cell elements in 1 μL of nasal lavage: 405 ± 130 in 1 μL of nasal lavage
  Neutrophils, content of cell elements in 1 μL of nasal lavage: 243 ± 58*& in 1 μL of nasal lavage
[4]
  Number of nose scratchings/2 hours: 13.9 ± 2.6 &
  Number of sneezes/2 hours: 5.9 ± 1.1 &
